# Assay results taken from patent US4871723A, “Method for treating psoriasis by externally administering to a patient a pharmaceutical composition containing active-type vitamin D” (priority 1984, dated 1989).
# Like-named read-outs stand apart in the source and are kept apart here.
# Columns and labels:
# [1] = tested on: psoriasis; conditions: clinical data, cited from earlier work
# [2] = amount of vitamin D3 in femoral muscles of rats 2 hours after ointment application or oral administration; assay type: in vivo, male Wistar-strain rats
# Method: (ii) Hair was removed from the femoral parts of five male Wistar-strain rats (body weight 220 to 230 g), and 100 mg of the ointment prepared in (i) was well rubbed into the hair-removed part of each animal. Two hours later, the rats were sacrificed, and the skin at the ointment-administeredsite was carefully removed and the muscles inside were taken out.
# [3] = tested on: psoriasis vulgaris; assay: therapeutic effect of ointment on psoriasis vulgaris of a person; assay type: in vivo; design: key to degree of severity: 4: very serious; 3: serious; 2: medium; 1: light; 0: disappeared
# Method: (i) A suitable amount of 1α,24(R)-dihydroxycholecalciferol was dissolved in diisopropyl adipate, and the solution was uniformly mixed with white vaseline to form an ointment. The mixing ratio of diisopropyl adipate to white vaseline was always maintained at 1:4 by weight, and the concentration of 1α,24(R)-dihydroxycholecalciferol in the ointment was adjusted to 400 micrograms/30 mg, 40 micrograms/30 mg, and 4 micrograms/30 mg.
# (ii) Each of the three ointment thus prepared was applied to the site of psoriasis vulgaris of a person, and their therapeutic effects were evaluated. Specifically, ±he ointment having a 1α,24(R)-(OH)2 -D3 concentration of 400 micrograms/30 mg was applied twice daily each in an amount of 30 mg to psoriasis vulgaris at the lower part of the right femur (diseased part A). The ointment having a 1α,24(R)-(OH)2 -D3 concentration of 40 micrograms/[…] was applied twice a day each in an amount of 30 mg to psoriasis vulgaris at the lower part of the left femur (diseased part B). The ointment having a 1α,24(R)-(OH concentration of 4 micrograms/30 mg was applied twice a day each in an amount of 30 mg to psoriasis vulgaris at the middle part of the right femur (the diseased part C).
# The therapeutic effects were evaluated on a scale of 5 grades as follows: […]
# [4] = control group, oral 0.5 microgram
# [5] = ointment-applied group, 100 mg ointment (5 micrograms/g)
"Amounts in the femoral muscles, 1st time (5 rats) [2, 4]","Amounts in the femoral muscles, 2nd time (5 rats) [2, 4]","Amounts in the femoral muscles, 3rd time (5 rats) [2, 4]","Amounts in the femoral muscles, 1st time (5 rats) [2, 5]","Amounts in the femoral muscles, 2nd time (5 rats) [2, 5]","Amounts in the femoral muscles, 3rd time (5 rats) [2, 5]",SMILES,effectiveness for the treatment of psoriasis ([1]; oral administration),"relapse of lesion ([3]; after more than 30 days from stopping of drug application, diseased parts A to C)","therapeutic effect on psoriasis vulgaris ([3]; external application, ointment)","improvement of diseased parts ([3]; five days after beginning of treatment, diseased parts A to C (400, 40, 4 micrograms/30 mg, twice daily), original severity 4)","degree of severity ([3]; ten days, all cases cured, diseased parts A to C (400, 40, 4 micrograms/30 mg, twice daily), original severity 4)",effectiveness for the treatment of psoriasis ([1]; external application)
103,98,126,441,607,588,"C=C1/C(=C\C=C2/CCC[C@]3(C)[C@@H]([C@H](C)CCCC(C)C)CC[C@@H]23)C[C@@H](O)C[C@@H]1O [Example 1α-OH--D3, 1α-hydroxycholecalciferol]",effective,–,–,–,–,–
–,–,–,–,–,–,"C=C1/C(=C\C=C2/CCC[C@]3(C)[C@@H]([C@H](C)CC[C@@H](O)C(C)C)CC[C@@H]23)C[C@@H](O)C[C@@H]1O [1α,24(R)-(OH)2 -D3, 1α,24(R)-dihydroxycholecalciferol]",–,no relapse of lesion was noted,good therapeutic effect,an improvement was observed in all cases,0,–
–,–,–,–,–,–,"C=C1/C(=C\C=C2/CCC[C@]3(C)[C@@H]([C@H](C)CCCC(C)(C)O)CC[C@@H]23)C[C@@H](O)C[C@@H]1O [1α,25-(OH)2 --D3, 1α,25-dihydroxycholecalciferol]",effective,–,–,–,–,effective
